# Data: patent US10206937B2, “Boronic acid derivatives and therapeutic uses thereof” (Qpex Biopharma, Inc., priority 2014, dated 2019)
# How the values were obtained:
# NDM-1 [1] = target: T1, NDM-1 (Klebsiella pneumoniae, UniProt C7C422); assay: biochemical
# VIM-1 = target: T2, VIM-1 (Pseudomonas aeruginosa, UniProt A0A0F7KYQ8); assay: biochemical; conditions: cleavage of nitrocefin (200 uM) by VIM-1 supernatant
# T2 construct: made in house; host or cells: ECM6711 strain carrying pUCP24-VIM-1 plasmid; culture supernatant used unpurified
# [2] = target: T3, purified class A, C and D enzymes (UniProt P0AD64, L31Q/G234S/E235K, species not given); format: biochemical; conditions: read-out: Ki (SHV-12, NCF); purified SHV-12; nitrocefin reporter substrate
# T3 construct: Ki (SHV-12, NCF); other: purified SHV-12; nitrocefin reporter substrate
# T3 sequence (P0AD64 1-286 L31Q/G234S/E235K): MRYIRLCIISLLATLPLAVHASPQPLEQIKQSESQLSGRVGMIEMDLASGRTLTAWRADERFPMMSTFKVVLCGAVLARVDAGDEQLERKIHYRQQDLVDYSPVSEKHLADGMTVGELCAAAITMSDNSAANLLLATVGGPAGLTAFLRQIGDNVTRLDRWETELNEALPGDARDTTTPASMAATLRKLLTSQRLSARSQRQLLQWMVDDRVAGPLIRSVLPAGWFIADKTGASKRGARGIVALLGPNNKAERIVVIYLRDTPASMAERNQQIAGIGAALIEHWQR
# [3] = target: T4, purified class A, C and D enzymes (UniProt Q6XEC0); format: biochemical; conditions: read-out: Ki (OXA-48, NCF); purified OXA-48; nitrocefin reporter substrate
# T4 construct: rows headed: Ki (OXA-48, NCF); other: purified OXA-48; nitrocefin reporter substrate
# [4] = target: T5, purified class A, C and D enzymes (UniProt Q9F663); format: biochemical; conditions: read-out: Ki (KPC-2, NCF); purified KPC-2; nitrocefin reporter substrate
# T5 construct: rows headed: Ki (KPC-2, NCF); other: purified KPC-2; nitrocefin reporter substrate
# [5] = target: purified class A, C and D enzymes (Escherichia coli, UniProt Q9L5C7); format: biochemical; conditions: purified CTX-M-14; nitrocefin reporter substrate
# Chain of purified class A, C and D enzymes (Escherichia coli, UniProt Q9L5C7) (Q9L5C7 entry or part of it): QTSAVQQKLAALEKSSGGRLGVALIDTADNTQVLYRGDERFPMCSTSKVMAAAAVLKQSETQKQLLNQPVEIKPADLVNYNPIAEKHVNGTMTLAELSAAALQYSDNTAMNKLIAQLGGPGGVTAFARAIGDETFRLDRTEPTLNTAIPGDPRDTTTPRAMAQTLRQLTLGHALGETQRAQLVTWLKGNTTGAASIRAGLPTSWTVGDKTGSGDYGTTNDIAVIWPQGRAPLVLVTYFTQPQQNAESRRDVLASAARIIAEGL
# [6] = target: purified class A, C and D enzymes (Enterobacter cloacae, UniProt P05364); format: biochemical; conditions: purified P99/AmpC of ECL; nitrocefin reporter substrate
# Chain of purified class A, C and D enzymes (Enterobacter cloacae, UniProt P05364) (P05364 21-381): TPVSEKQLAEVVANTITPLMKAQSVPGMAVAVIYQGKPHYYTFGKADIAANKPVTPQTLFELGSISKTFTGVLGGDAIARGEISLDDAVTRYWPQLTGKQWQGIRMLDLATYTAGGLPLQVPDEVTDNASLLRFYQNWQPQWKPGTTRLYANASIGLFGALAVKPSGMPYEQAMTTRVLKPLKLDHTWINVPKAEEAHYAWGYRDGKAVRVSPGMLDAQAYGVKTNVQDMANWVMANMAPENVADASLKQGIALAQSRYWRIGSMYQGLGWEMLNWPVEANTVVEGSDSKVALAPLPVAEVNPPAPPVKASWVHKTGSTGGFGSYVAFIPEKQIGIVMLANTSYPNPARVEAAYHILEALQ
# NDM-1 [7] = target: T1, NDM-1; assay: Inhibition of purified class B carbapenemase NDM-1 (Ki, imipenem substrate); format: biochemical; conditions: NDM-1, substrate imipenem; read-out: Ki NDM-1, Imipenem
# [8] = cleavage of imipenem (100 uM) by NDM-1, read-out: Ki, Imipenem
# T1 sequence (C7C422 29-270, looked up, species assumed): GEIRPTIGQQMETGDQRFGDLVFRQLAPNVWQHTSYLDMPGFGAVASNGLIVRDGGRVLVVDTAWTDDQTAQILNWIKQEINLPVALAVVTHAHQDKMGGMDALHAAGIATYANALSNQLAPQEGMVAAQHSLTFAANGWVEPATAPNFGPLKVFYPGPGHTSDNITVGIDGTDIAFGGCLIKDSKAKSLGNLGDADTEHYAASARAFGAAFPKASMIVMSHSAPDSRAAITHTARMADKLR
SMILES,Ki (NDM-1 [1]; [8]),IC50 (VIM-1),Ki [2],Ki [3],Ki [4],"Ki (CTX-M-14, NCF) [5]","Ki (P99/AmpC of ECL, NCF) [6]",Ki (NDM-1 [7]),"Ki (NDM-1 [1]; cleavage of biapenem (100 uM) by NDM-1, read-out: Ki, Biapenem)","Ki (NDM-1 [1]; cleavage of meropenem (100 uM) by NDM-1, read-out: Ki, Meropenem)"
"Cn1ncc(C(N)=O)c1S[C@H]1Cc2ccc(F)c(C(=O)O)c2OB1O [Compound 56, (3R)-3-(4-carbamoyl-2-methyl-pyrazol-3-yl)sulfanyl-7-fluoro-2-hydroxy-3,4-dihydro-1,2-benzoxaborinine-8-carboxylic acid]",> 100 nM,≥ 1000 nM,100 to 1000 nM,< 100 nM,100 to 1000 nM,Y (0.1 μM to 1 μM),Z (Greater than 1 μM),> 100 nM,–,–
"Nc1nnc(S[C@H]2Cc3ccc(Cl)c(C(=O)O)c3OB2O)s1 [Compound 36, (R)-3-(5-amino-1,3,4-thiadiazol-2-ylthio)-7-chloro-2-hydroxy-3,4-dihydro-2H-benzo[e][1,2]oxaborinine-8-carboxylic acid]",10 to 100 nM,≥ 1000 nM,< 100 nM,< 100 nM,< 100 nM,X (Less than 0.1 μM),Z (Greater than 1 μM),10 to 100 nM,–,–
"O=C(O)c1c(OC(F)F)ccc2c1OB(O)[C@@H](Sc1nncs1)C2 [Compound 94, (3R)-7-(difluoromethoxy)-2-hydroxy-3-(1,3,4-thiadiazol-2-ylsulfanyl)-3,4-dihydro-1,2-benzoxaborinine-8-carboxylic acid]",> 100 nM,< 1000 nM,–,< 100 nM,100 to 1000 nM,X (Less than 0.1 μM),Z (Greater than 1 μM),> 100 nM,–,–
"Cn1nnnc1S[C@H]1Cc2cccc(C(=O)O)c2OB1O [Compound 5, (R)-2-hydroxy-3-(1-methyl-1H-tetrazol-5-ylthio)-3,4-dihydro-2H-benzo[e][1,2]oxaborinine-8-carboxylic acid]",10 to 100 nM,≥ 1000 nM,–,–,–,–,–,10 to 100 nM,–,–
"CO[C@H]1Cc2ccc(F)c(C(=O)O)c2OB1O [Compound 19, (R)-7-fluoro-2-hydroxy-3-methoxy-3,4-dihydro-2H-benzo[e][1,2]oxaborinine-8-carboxylic acid]",< 10 nM,< 1000 nM,< 100 nM,< 100 nM,< 100 nM,–,–,–,–,–
"CC(=N)S[C@H]1Cc2cccc(C(=O)O)c2OB1O [Compound 10, (R)-2-hydroxy-3-(1-iminoethylthio)-3,4-dihydro-2H-benzo[e][1,2]oxaborinine-8-carboxylic acid]",10 to 100 nM,≥ 1000 nM,–,–,100 to 1000 nM,–,–,10 to 100 nM,–,–
"Nn1cnnc1S[C@H]1Cc2ccc(F)c(C(=O)O)c2OB1O [Compound 20, (R)-3-(4-amino-4H-1,2,4-triazol-3-ylthio)-7-fluoro-2-hydroxy-3,4-dihydro-2H-benzo[e][1,2]oxaborinine-8-carboxylic acid]",< 10 nM,≥ 1000 nM,< 100 nM,100 to 1000 nM,100 to 1000 nM,–,–,< 10 nM,–,–
"O=C(O)c1cccc2c1OB(O)[C@@H](Sc1cccnc1)C2 [Compound 8, (R)-2-hydroxy-3-(pyridin-3-ylthio)-3,4-dihydro-2H-benzo[e][1,2]oxaborinine-8-carboxylic acid]",> 100 nM,< 1000 nM,–,–,–,–,–,> 100 nM,–,–
O=C(O)c1c(OCc2nncs2)ccc2c1OB(O)[C@@H](Sc1nncs1)C2 [Compound 93],> 100 nM,< 1000 nM,–,< 100 nM,100 to 1000 nM,X (Less than 0.1 μM),Y (0.1 μM to 1 μM),> 100 nM,–,–
"O=C(O)c1cccc2c1OB(O)[C@@H](Sc1c[nH]nn1)C2 [Compound 12, (R)-3-(1H-1,2,3-triazol-4-ylthio)-2-hydroxy-3,4-dihydro-2H-benzo[e][1,2]oxaborinine-8-carboxylic acid]",10 to 100 nM,< 1000 nM,–,–,100 to 1000 nM,–,–,10 to 100 nM,–,–
"CSc1ccc2c(c1C(=O)O)OB(O)[C@@H](Sc1nncn1N)C2 [Compound 25, (R)-3-(4-amino-4H-1,2,4-triazol-3-ylthio)-2-hydroxy-7-(methylthio)-3,4-dihydro-2H-benzo[e][1,2]oxaborinine-8-carboxylic acid]",< 10 nM,< 1000 nM,< 100 nM,< 100 nM,100 to 1000 nM,–,–,< 10 nM,–,–
"COc1ccc2c(c1C(=O)O)OB(O)[C@@H](Sc1nnc(NC(=N)N)s1)C2 [Compound 106, (3R)-3-[(5-guanidino-1,3,4-thiadiazol-2-yl)sulfanyl]-2-hydroxy-7-methoxy-3,4-dihydro-1,2-benzoxaborinine-8-carboxylic acid]",> 100 nM,< 1000 nM,–,< 100 nM,100 to 1000 nM,X (Less than 0.1 μM),X (Less than 0.1 μM),> 100 nM,–,–
"O=C(O)c1c(OCC2CC2)ccc2c1OB(O)[C@@H](Sc1nncs1)C2 [Compound 92, (3R)-7-(cyclopropylmethoxy)-2-hydroxy-3-(1,3,4-thiadiazol-2-ylsulfanyl)-3,4-dihydro-1,2-benzoxaborinine-8-carboxylic acid]",10 to 100 nM,< 1000 nM,–,< 100 nM,100 to 1000 nM,X (Less than 0.1 μM),Y (0.1 μM to 1 μM),10 to 100 nM,–,–
"Cn1cnnc1S[C@H]1Cc2ccc(F)c(C(=O)O)c2OB1O [Compound 24, (R)-7-fluoro-2-hydroxy-3-(4-methyl-4H-1,2,4-triazol-3-ylthio)-3,4-dihydro-2H-benzo[e][1,2]oxaborinine-8-carboxylic acid]",10 to 100 nM,≥ 1000 nM,< 100 nM,< 100 nM,100 to 1000 nM,–,–,10 to 100 nM,–,–
"O=C(O)c1cccc2c1OB(O)[C@@H](Sc1ccccc1)C2 [Compound 6, (R)-2-hydroxy-3-(phenylthio)-3,4-dihydro-2H-benzo[e][1,2]oxaborinine-8-carboxylic acid]",< 10 nM,< 1000 nM,–,–,–,–,–,< 10 nM,–,–
"CO[C@H]1Cc2cccc(C(=O)O)c2OB1O [Compound 17, (R)-2-hydroxy-3-methoxy-3,4-dihydro-2H-benzo[e][1,2]oxaborinine-8-carboxylic acid]",10 to 100 nM,< 1000 nM,< 100 nM,< 100 nM,< 100 nM,–,–,10 to 100 nM,10 to 100 nM,10 to 100 nM
"CS(=O)(=O)Nc1ccc2c(c1C(=O)O)OB(O)[C@@H](Sc1nnc(N)s1)C2 [Compound 120, (3R)-3-[(5-amino-1,3,4-thiadiazol-2-yl)sulfanyl]-2-hydroxy-7-(methanesulfonamido)-3,4-dihydro-1,2-benzoxaborinine-8-carboxylic acid]",< 10 nM,< 1000 nM,–,< 100 nM,100 to 1000 nM,X (Less than 0.1 μM),X (Less than 0.1 μM),< 10 nM,–,–
"COc1ccc2c(c1C(=O)O)OB(O)[C@@H](SC1CN(S(N)(=O)=O)C1)C2 [Compound 76, (3R)-2-hydroxy-7-methoxy-3-(1-sulfamoylazetidin-3-yl)sulfanyl-3,4-dihydro-1,2-benzoxaborinine-8-carboxylic acid]",> 100 nM,≥ 1000 nM,–,< 100 nM,100 to 1000 nM,X (Less than 0.1 μM),Y (0.1 μM to 1 μM),> 100 nM,–,–
"CSCCOc1ccc2c(c1C(=O)O)OB(O)[C@@H](Sc1nncs1)C2 [Compound 95, (3R)-2-hydroxy-7-(2-methylsulfanylethoxy)-3-(1,3,4-thiadiazol-2-ylsulfanyl)-3,4-dihydro-1,2-benzoxaborinine-8-carboxylic acid]",10 to 100 nM,< 1000 nM,–,< 100 nM,100 to 1000 nM,X (Less than 0.1 μM),Y (0.1 μM to 1 μM),10 to 100 nM,–,–
"O=C(O)c1cccc2c1OB(O)[C@@H](OCc1ccccc1)C2 [Compound 13, (R)-3-(benzyloxy)-2-hydroxy-3,4-dihydro-2H-benzo[e][1,2]oxaborinine-8-carboxylic acid]",10 to 100 nM,< 1000 nM,–,–,–,–,–,10 to 100 nM,–,–
